According to patent US20180201592A1, “2-AMINO-1,3,4-THIADIAZINE AND 2-AMINO-1,3,4-OXADIAZINE BASED ANTIFUNGAL AGENTS” (F2G Limited, priority 2015, published 2018):

Legend:
Conditions in all cases: banded MIC grade
Aspergillus fumigatus = assay: Minimum inhibitory concentration, YAG medium; format: cell-based
In short: (§1)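 Broth microdilution in YAG medium; inoculum 1-2×10^4 cfu/mL; compound 50-0.05 mg/L in doubling steps, from DMSO stock. 24 h, 35° C. Read OD 485 nm; MIC = lowest conc. inhibiting growth >70% vs no-drug control, in mg/L.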

A. fumigatus 210 [1] = assay: Minimum inhibitory concentration, YAG medium; format: cell-based, Aspergillus fumigatus
In short: as §1

A. terreus 49 [2] = assay: Minimum inhibitory concentration, YAG medium; format: cell-based, Aspergillus terreus
In short: (§2)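 Compound in DMSO (5 mg/mL stock), diluted in water and doubling-diluted; Aspergillus spores grown in YAG medium 24 hrs at 35° C. Growth read as optical density at 485 nm; MIC given in mg/L.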

Aspergillus flavus = assay: Minimum inhibitory concentration, YAG medium; format: cell-based
In short: as §2

Aspergillus niger = assay: Minimum inhibitory concentration, YAG medium; format: cell-based
In short: as §2

Aspergillus terreus = assay: Minimum inhibitory concentration, YAG medium; format: cell-based
In short: as §2

A. flavus = assay: Minimum inhibitory concentration, RPMI medium; format: cell-based
In short: (§3)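 Broth microdilution in RPMI 1640 medium using doubling dilutions in water prepared from a 5 mg/mL DMSO stock. Plates incubated 24-48 hrs at 35° C; growth read as optical density at 485 nm.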

A. niger = assay: Minimum inhibitory concentration, RPMI medium; format: cell-based
In short: as §3

A. terreus 49 [3] = assay: Minimum inhibitory concentration, RPMI medium; format: cell-based
In short: as §3

A. terreus = assay: Minimum inhibitory concentration, RPMI medium; format: cell-based
In short: as §3

C. albicans = assay: Minimum inhibitory concentration, RPMI medium; format: cell-based
In short: as §3

C. glabrata = assay: Minimum inhibitory concentration, RPMI medium; format: cell-based
In short: as §3

C. krusei = assay: Minimum inhibitory concentration, RPMI medium; format: cell-based
In short: as §3

C. parapsilosis = assay: Minimum inhibitory concentration, RPMI medium; format: cell-based
In short: as §3

C. tropicalis = assay: Minimum inhibitory concentration, RPMI medium; format: cell-based
In short: as §3

A. fumigatus 210 [4] = assay: Minimum inhibitory concentration, RPMI medium; format: cell-based
Method: (§4) Between 1 and 5 mgs of compound were accurately weighed out into a sterile Eppendorf tube. The compound was dissolved in DMSO to give a solution containing 5 mg/mL. Tubes were stored at −20° C. until required.
(§5) On the day of testing thawed solutions were vortex mixed to ensure homogeneity. 30 μL of solution was removed and added to 570 μL of sterile water in a separate sterile Eppendorf. The thoroughly mixed solution was used to prepare a series of doubling dilutions in water, in a deep well plate. Thirteen replicate plates were prepared using a Minitrak by aspirating 20 μL from each well into eleven clear polystyrene 96 well plates.
(§6) Assays were also performed in RPMI medium (Roswell Park Memorial Media 1640). To perform MIC tests in this medium, dilutions of compounds are prepared in microtitre plates as described above. Fungal strains to be tested are grown and harvested in an identical manner to that described above, and each organism suspension was diluted in RPMI medium, typically containing 2% glucose and 0.135 M MOPS buffer (pH 7.0) to 0.5-2×10^4cfu/mL, rather than in YAG medium. 80 μL of an organism suspension was added to each well of the plate containing drug dilutions.
(§7) This produced MIC plates with a drug range 50-0.05 mg/L and organism inocula of 1-2×10^4 cfu/mL. All plates were incubated for 24-48 hrs at 35° C. Growth was assessed by monitoring the optical density at 485 nm for each well. The MIC of a compound is the lowest drug concentration that inhibits growth of an organism by >80% compared with a drug free control. The following organisms were tested: C. albicans, C. parapsilosis, C. tropicalis, C. glabrata, C. krusei, A. niger, A. fumigatus, A. terreus, A. flavus, A. terreus 49, and A. fumigatus 210.

A. fumigatus = assay: Minimum inhibitory concentration, RPMI medium; format: cell-based
Method: as §4, §5, §6, §7

Compound | MIC grade, A. FUMIGATUS, YAG media (Aspergillus fumigatus) | MIC grade, A. FUMIGATUS 210, YAG media (A. fumigatus 210 [1]) | MIC grade, A. TERREUS 49, YAG media (A. terreus 49 [2]) | MIC grade, A. FLAVUS, YAG media (Aspergillus flavus) | MIC grade, A. NIGER, YAG media (Aspergillus niger) | MIC grade, A. TERREUS, YAG media (Aspergillus terreus) | MIC grade, A. FLAVUS, RPMI media (A. flavus) | MIC grade, A. NIGER, RPMI media (A. niger) | MIC grade, A. TERREUS 49, RPMI media (A. terreus 49 [3]) | MIC grade, A. TERREUS, RPMI media (A. terreus) | MIC grade, C. ALBICANS, RPMI media (C. albicans) | MIC grade, C. GLABRATA, RPMI media (C. glabrata) | MIC grade, C. KRUSEI, RPMI media (C. krusei) | MIC grade, C. PARAPSILOSIS, RPMI media (C. parapsilosis) | MIC grade, C. TROPICALIS, RPMI media (C. tropicalis) | MIC grade, A. FUMIGATUS 210, RPMI media (A. fumigatus 210 [4]) | MIC grade, A. FUMIGATUS, RPMI media (A. fumigatus)
CC(=O)OCCCCC1=NN=C(N)SC1 | 4 (4: <0.2 mg/L) | 4 (4: <0.2 mg/L) | 4 (4: <0.2 mg/L) | 4 (4: <0.2 mg/L) | 3 (3: 0.2-1 mg/L) | 4 (4: <0.2 mg/L) | 3 (3: 1-5 mg/L) | 2 (2: 5-20 mg/L) | 3 (3: 1-5 mg/L) | 3 (3: 1-5 mg/L) | 3 (3: 1-5 mg/L) | 2 (2: 5-20 mg/L) | 4 (4: <1 mg/L) | 4 (4: <1 mg/L) | 3 (3: 1-5 mg/L) | 3 (3: 1-5 mg/L) | 3 (3: 1-5 mg/L)
NC1=NN=C(CCCCOCCc2ccccc2)CS1 | 3 (3: 0.2-1 mg/L) | 3 (3: 0.2-1 mg/L) | 3 (3: 0.2-1 mg/L) | 4 (4: <0.2 mg/L) | 3 (3: 0.2-1 mg/L) | 3 (3: 0.2-1 mg/L) | 3 (3: 1-5 mg/L) | 2 (2: 5-20 mg/L) | 2 (2: 5-20 mg/L) | 2 (2: 5-20 mg/L) | 3 (3: 1-5 mg/L) | 2 (2: 5-20 mg/L) | 3 (3: 1-5 mg/L) | 3 (3: 1-5 mg/L) | 3 (3: 1-5 mg/L) | 1 (1: ≥20 mg/L) | 2 (2: 5-20 mg/L)
NC1=NN=C(CCCCOCCCc2ccc(F)cc2F)CS1 | 3 (3: 0.2-1 mg/L) | 3 (3: 0.2-1 mg/L) | 3 (3: 0.2-1 mg/L) | 4 (4: <0.2 mg/L) | 3 (3: 0.2-1 mg/L) | 3 (3: 0.2-1 mg/L) | 3 (3: 1-5 mg/L) | 2 (2: 5-20 mg/L) | 2 (2: 5-20 mg/L) | 2 (2: 5-20 mg/L) | 4 (4: <1 mg/L) | 2 (2: 5-20 mg/L) | 4 (4: <1 mg/L) | 4 (4: <1 mg/L) | 3 (3: 1-5 mg/L) | 1 (1: ≥20 mg/L) | 2 (2: 5-20 mg/L)
NC1=NN=C(CCCCOCc2cccc(CCc3ccccc3)c2)CS1 | 2 (2: 1-5 mg/L) | 1 (1: ≥5 mg/L) | 2 (2: 1-5 mg/L) | 2 (2: 1-5 mg/L) | 2 (2: 1-5 mg/L) | 2 (2: 1-5 mg/L) | 2 (2: 5-20 mg/L) | 1 (1: ≥20 mg/L) | 1 (1: ≥20 mg/L) | 1 (1: ≥20 mg/L) | 2 (2: 5-20 mg/L) | 1 (1: ≥20 mg/L) | 2 (2: 5-20 mg/L) | 2 (2: 5-20 mg/L) | 2 (2: 5-20 mg/L) | 1 (1: ≥20 mg/L) | 1 (1: ≥20 mg/L)
NC1=NN=C(CCCCOCc2cccc(C(F)(F)F)c2)CS1 | 3 (3: 0.2-1 mg/L) | 3 (3: 0.2-1 mg/L) | 2 (2: 1-5 mg/L) | 3 (3: 0.2-1 mg/L) | 3 (3: 0.2-1 mg/L) | 2 (2: 1-5 mg/L) | 2 (2: 5-20 mg/L) | 2 (2: 5-20 mg/L) | 2 (2: 5-20 mg/L) | 2 (2: 5-20 mg/L) | 3 (3: 1-5 mg/L) | 1 (1: ≥20 mg/L) | 2 (2: 5-20 mg/L) | 2 (2: 5-20 mg/L) | 2 (2: 5-20 mg/L) | 1 (1: ≥20 mg/L) | 2 (2: 5-20 mg/L)
CCc1cccc(COCCCCC2=NN=C(N)SC2)c1 | 4 (4: <0.2 mg/L) | 3 (3: 0.2-1 mg/L) | 4 (4: <0.2 mg/L) | 4 (4: <0.2 mg/L) | 4 (4: <0.2 mg/L) | 4 (4: <0.2 mg/L) | 3 (3: 1-5 mg/L) | 2 (2: 5-20 mg/L) | 2 (2: 5-20 mg/L) | 2 (2: 5-20 mg/L) | 4 (4: <1 mg/L) | 2 (2: 5-20 mg/L) | 4 (4: <1 mg/L) | 4 (4: <1 mg/L) | 4 (4: <1 mg/L) | 2 (2: 5-20 mg/L) | 2 (2: 5-20 mg/L)
NC1=NN=C(CCCCOCc2cccc(-c3ccccc3)c2)CS1 | 1 (1: ≥5 mg/L) | 1 (1: ≥5 mg/L) | 2 (2: 1-5 mg/L) | 2 (2: 1-5 mg/L) | 2 (2: 1-5 mg/L) | 2 (2: 1-5 mg/L) | 2 (2: 5-20 mg/L) | 1 (1: ≥20 mg/L) | 1 (1: ≥20 mg/L) | 2 (2: 5-20 mg/L) | 2 (2: 5-20 mg/L) | 1 (1: ≥20 mg/L) | 2 (2: 5-20 mg/L) | 2 (2: 5-20 mg/L) | 2 (2: 5-20 mg/L) | 1 (1: ≥20 mg/L) | 1 (1: ≥20 mg/L)
NC1=NN=C(CCCCOCc2ccc(Cl)c(F)c2)CS1 | 4 (4: <0.2 mg/L) | 4 (4: <0.2 mg/L) | 4 (4: <0.2 mg/L) | 4 (4: <0.2 mg/L) | 4 (4: <0.2 mg/L) | 4 (4: <0.2 mg/L) | 4 (4: <1 mg/L) | 4 (4: <1 mg/L) | 3 (3: 1-5 mg/L) | 3 (3: 1-5 mg/L) | 4 (4: <1 mg/L) | 4 (4: <1 mg/L) | 4 (4: <1 mg/L) | 4 (4: <1 mg/L) | 4 (4: <1 mg/L) | 2 (2: 5-20 mg/L) | 4 (4: <1 mg/L)
